Columns and labels:
[1] = system: mouse tail lymphatic network (initial lymphatics); assay: Mouse tail microlymphangiography with residence time distribution (RTD) analysis of lymphatic function; type: in vivo, mice (C57BL/6); conditions: for overall lymphatic fluid velocity in the dermal lymphatic network: collecting lymphatics not ligated
Experimental: Studies were carried out in 7-10 week old female C57BL/6 and nude mice. Forty-eight mice were used for these experiments: sixteen for the inhibition experiments, fifteen for the ligation experiment, and seventeen additional controls. All procedures were carried out following the guidelines of the Institutional Animal Care and Use Committee of the Massachusetts General Hospital.
Mice in the experimental groups 5 and 6 underwent ligation of the deep collecting lymphatic vessels of the tail immediately before the microlymphangiography, to avoid development of edema (FIG. 1). Mice were anesthetized intramuscularly (90 mg/kg Ketamine and 9 mg/kg Xylazine) and placed on a heated surgical microscopy table. The translucent deep collecting lymphatic vessels were separated from the tail veins with microsurgical forceps through small, bilateral incisions in the axial direction, and ligated with a 10-O non-absorbable suture (Prolene, Ethicon, N.J., United States). The incision site was closed with surgical glue, taking care to avoid circumferential tension on the tail that could interfere with superficial lymphatic function.
Fluorescence intensity measurements were carried out using RTD analysis as described previously (Swartz et al., Am J Physiol. 1996, 270:H324-H329). Briefly, mice were anesthetized intramuscularly (90 mg/kg Ketamine and 9 mg/kg Xylazine) and placed on a small plate. 2.5% FITC-dextran (MW=2 million; Sigma, St. Louis, Mo.) in PBS was infused into the interstitial tissue of the tail tip, with a constant pressure of 40 cm H2O via a 30-gauge needle. […] The mouse was transferred to an epifluorescence microscopy setup as described previously (Leu et al., Am J Physiol. 1994, 267:H1507-H1513). […] The temporally consecutive fluorescent images were analyzed offline using NIH Image Analysis software. The average fluorescence intensity was determined for each image, and used to calculate the mean residence time for each region, the overall lymph fluid velocity in the tail lymphatic network, and the mean LV diameter.

[2] = parameters: species or system C57BL/6 mice; conditions: mouse, in vivo
Experimental: 8 week old, female C57BL/6 mice were weighed and anesthetized (90 mg/kg Ketamine and 9 mg/kg Xylazine). Mean arterial pressure (MAP) was measured by cannulating the exposed left carotid artery with a PE-10 intravascular polyethylene catheter, connected to a pressure transducer (Gould Inc, Valley View, Ohio).

[3] = 3 days of treatment, not ligated, mean±SE
[4] = after ligation of the collecting lymphatics, 3 days of treatment, mean±SE

Row | SMILES | overall lymphatic fluid velocity in the dermal lymphatic network ([1]; 3 days of treatment, mean±SE) [μm/s] | injection rate of the fluorescent tracer into the interstitium [1, 3] [nL/min] | mean lymphatic vessel diameter [1, 3] [μm] | decrease of overall lymphatic fluid velocity compared to controls that had received D-NMMA ([1]; 3 days of L-NMMA treatment, not ligated) [%] | injection rate [1, 4] [nL/min] | mean lymphatic vessel diameter [1, 4] [μm] | lymphatic fluid velocity compared with controls treated with D-NMMA or AP (FIG. 2A) ([1]; not ligated, result in words) | mean lymphatic vessel diameter compared with controls (FIG. 2C) ([1]; not ligated, result in words) | MAP (mean arterial pressure) [2] [mmHg]
1 | CN=C(N)NCCC[C@@H](N)C(=O)O [D-NMMA] | 8.7±0.4 | 15.7 ± 1.5 | 61.6±1.6 |  |  |  |  |  | 
2 | CNC(=N)NCCC[C@H](N)C(=O)O [L-NMMA, NG-monomethyl-L-arginine] | 5.1±0.6 | 11.3 ± 1.2 | 61.5±0.7 | 42 | 25.0 ± 1.3 | 77.2±2.1 | significantly lower | not different | 71.7±1.4

Reference: patent publication US20120237567A1, “MODULATING LYMPHATIC FUNCTION” (THE GENERAL HOSPITAL CORPORATION, priority 2004, published 2012)
